Laboratory results: ChEMBL document CHEMBL3817807, “Sequence-specific DNA binding by long hairpin pyrrole-imidazole polyamides containing an 8-amino-3,6-dioxaoctanoic acid unit” (Bioorg Med Chem, 2016)
The source made the active and inactive calls. The calls are words filed in the database; no cut-off is given here.

What was measured:
[1] = Binding affinity to ATCGGCAAA oligonucleotide DNA sequence (unknown origin) at 50 nM incubated for 16 hrs by PCR based Bind-n-Seq analysis
[2] = Binding affinity to AAAGGAATC oligonucleotide DNA sequence (unknown origin) at 50 nM incubated for 16 hrs by PCR based Bind-n-Seq analysis
[3] = Binding affinity to AAAGAAGGC oligonucleotide DNA sequence (unknown origin) at 50 nM incubated for 16 hrs by PCR based Bind-n-Seq analysis
[4] = Binding affinity to GGGCAGAAA oligonucleotide DNA sequence (unknown origin) at 50 nM incubated for 16 hrs by PCR based Bind-n-Seq analysis
[5] = Binding affinity to AAAGGCCGA oligonucleotide DNA sequence (unknown origin) at 50 nM incubated for 16 hrs by PCR based Bind-n-Seq analysis
[6] = Binding affinity to TATGGCTCA oligonucleotide DNA sequence (unknown origin) at 50 nM incubated for 16 hrs by PCR based Bind-n-Seq analysis
[7] = Binding affinity to AAAGGGTAA oligonucleotide DNA sequence (unknown origin) at 50 nM incubated for 16 hrs by PCR based Bind-n-Seq analysis
[8] = Binding affinity to AGGCGAAAT oligonucleotide DNA sequence (unknown origin) at 50 nM incubated for 16 hrs by PCR based Bind-n-Seq analysis
[9] = Binding affinity to CCTTTCGGC oligonucleotide DNA sequence (unknown origin) at 50 nM incubated for 16 hrs by PCR based Bind-n-Seq analysis
[10] = Binding affinity to AGAAAGGCG oligonucleotide DNA sequence (unknown origin) at 50 nM incubated for 16 hrs by PCR based Bind-n-Seq analysis
[11] = Binding affinity to ATGTCTGCC oligonucleotide DNA sequence (unknown origin) at 50 nM incubated for 16 hrs by PCR based Bind-n-Seq analysis
[12] = Binding affinity to TGGCAGACA oligonucleotide DNA sequence (unknown origin) at 50 nM incubated for 16 hrs by PCR based Bind-n-Seq analysis
[13] = Binding affinity to GGCTGACTG oligonucleotide DNA sequence (unknown origin) at 50 nM incubated for 16 hrs by PCR based Bind-n-Seq analysis
[14] = Binding affinity to GTGTCAGCC oligonucleotide DNA sequence (unknown origin) at 50 nM incubated for 16 hrs by PCR based Bind-n-Seq analysis
[15] = Binding affinity to TAGTCAGCC oligonucleotide DNA sequence (unknown origin) at 50 nM incubated for 16 hrs by PCR based Bind-n-Seq analysis
[16] = Binding affinity to AGTCAGCCT oligonucleotide DNA sequence (unknown origin) at 50 nM incubated for 16 hrs by PCR based Bind-n-Seq analysis
[17] = Binding affinity to GGTTGACAT oligonucleotide DNA sequence (unknown origin) at 50 nM incubated for 16 hrs by PCR based Bind-n-Seq analysis
[18] = Binding affinity to TGGCAGACT oligonucleotide DNA sequence (unknown origin) at 50 nM incubated for 16 hrs by PCR based Bind-n-Seq analysis
[19] = Binding affinity to TGTCAGCGA oligonucleotide DNA sequence (unknown origin) at 50 nM incubated for 16 hrs by PCR based Bind-n-Seq analysis
[20] = Binding affinity to TGTCAGCCT oligonucleotide DNA sequence (unknown origin) at 50 nM incubated for 16 hrs by PCR based Bind-n-Seq analysis

| Activity [1] | Activity [2] | Activity [3] | Activity [4] | Activity [5] | Activity [6] | Activity [7] | Activity [8] | Activity [9] | Activity [10] | Activity [11] | Activity [12] | Activity [13] | Activity [14] | Activity [15] | Activity [16] | Activity [17] | Activity [18] | Activity [19] | Activity [20] | SMILES |
| --- | --- | --- | --- | --- | --- | --- | --- | --- | --- | --- | --- | --- | --- | --- | --- | --- | --- | --- | --- | --- |
| Active | Active | Active | Active | Active | Active | Active | Active | Active | Active | – | – | – | – | – | – | – | – | – | – | CC(=O)Nc1cn(C)c(C(=O)Nc2cn(C)c(C(=O)Nc3cc(C(=O)NCCC(=O)Nc4cn(C)c(C(=O)Nc5cc(C(=O)Nc6cc(C(=O)NCCCC(=O)Nc7cn(C)c(C(=O)Nc8cc(C(=O)NCCOCCOCC(=O)Nc9cn(C)c(C(=O)Nc%10cc(C(=O)Nc%11cc(C(=O)NCCC(=O)NCCCN(C)CCCNC(=O)CCOCCOCCOCCOCCOCCOCCOCCOCCOCCOCCOCCOCCNC(=O)CCCC[C@@H]%12SC[C@@H]%13NC(=O)N[C@@H]%13%12)n(C)c%11)n(C)c%10)n9)n(C)c8)n7)n(C)c6)n(C)c5)n4)n(C)c3)n2)n1 |
| – | – | – | – | – | – | – | – | – | – | Active | Active | Active | Active | Active | Active | Active | Active | Active | Active | CC(=O)Nc1cn(C)c(C(=O)Nc2cn(C)c(C(=O)NCCOCCOCC(=O)Nc3cn(C)c(C(=O)Nc4cc(C(=O)Nc5cc(C(=O)NCCCC(=O)Nc6cn(C)c(C(=O)Nc7cc(C(=O)Nc8cc(C(=O)NCCC(=O)Nc9cn(C)c(C(=O)Nc%10cc(C(=O)Nc%11cc(C(=O)NCCC(=O)NCCCN(C)CCCNC(=O)CCOCCOCCOCCOCCOCCOCCOCCOCCOCCOCCOCCOCCNC(=O)CCCC[C@@H]%12SC[C@@H]%13NC(=O)N[C@@H]%13%12)n(C)c%11)n(C)c%10)n9)n(C)c8)n(C)c7)n6)n(C)c5)n(C)c4)n3)n2)n1 |
